Where two headings read alike, the source gives them in different places.
Tests used:
[1] = target: ERK5 (Homo sapiens, UniProt Q13164); assay: Isothermal titration calorimetry (ITC) assay; assay type: binding; set-up: ERK5 (residues 48–395) containing His and GST tags was cloned into the pFastBac vector; His (cleaved yes); GST (cleaved yes); made in house; host or cells: Sf9 insect cells (baculovirus); conditions: 25 °C
Experimental: (§1) The full-length human ERK1 or ERK2 with His-tag was cloned into a pET28a vector. hERK1/2 were expressed in Escherichia coli BL21(DE3), and then were purified using sequential Ni-NTA and Superdex 200 column steps. The SEC purified sample was then concentrated to 10 mg/ml and stored at −80 °C with buffer containing 20 mM HEPES pH 7.5, 150 mM NaCl. ERK5 (residues 48–395) containing His and GST tags was cloned into the pFastBac vector, and the recombinant plasmid was extracted. The recombinant plasmid was transformed into the DH10bac strain, and monoclonal was selected for culture. The recombinant Bacmid was then extracted according to the instructions of the Baculovirus Shuttle Vector Bacmid Mini Preparation Kit (Beyotime) and validated by PCR. 1 × 10^6/well Sf9 cells were counted for transfection and then amplified to obtain P3 ERK5 recombinant baculovirus. It was added to 2 × 10^6/mL Sf9 cells and incubated at 27 °C for 72 h on a shaker to express ERK5. Cells were lysed and supernatant was collected on a Ni-NTA for purification, and a 250 mM imidazole eluate was collected. […]
(§2) Calorimetric experiments were carried on an Affinity ITC (Waters, Shanghai) with 1 mM SKLB-D18 and 0.1 mM ERK1/2/5. […] The data were analyzed with the NanoAnalyze software employing a single binding site model. […]

[2] = system: MEK1/2 and MEK5; assay: Immunoblotting of upstream MEK activity; assay type: cell-based; conditions: up to 5 μM, 24 h
Experimental: Then, the cells were washed twice with PBS and stimulated with cell lysis buffer. After 13,000 rpm centrifugation for 20 min, an enhanced bicinchoninic acid (BCA) protein assay kit was (Beyotime Biotechnology, Jiangsu, China) used to quantify the protein level of the supernatural. […] Furthermore, membranes were blocked with 5% skim milk. The membranes were incubated by the corresponding primary antibodies. After being washed twice with TBST solution, the membranes were incubated with horseradish peroxidase (HRP)-conjugated secondary antibodies and visualized by employing ECL ([…]) as the HRP substrate.

[3] = Pharmacokinetic study; assay type: in vivo; conditions: rat, plasma, SD rats; for Vd: SD, 1 mg/kg
Experimental: SKLB-D18 was formulated using a composition of 10% DMSO, 10% Solutol, and 80% (20% HP-β-CD). SKLB-D18 was administered via intravenous injection (1 mg/kg) and intragastric administration (10 mg/kg) on SD rats. At various time points post-administration (0.25 h, 0.5 h, 1 h, 2 h, 4 h, 6 h, 8 h, 24 h), blood samples (0.2 mL) were collected and centrifuged (6800 × g, 6 min, 2–8 °C) to separate plasma. Plasma samples were precipitated with methanol, vortexed, and centrifuged (18,000 × g, 4 °C, 7 min); the supernatant was analyzed using LC-MS/MS. Parameters such as AUC0-t, AUC0-∞, Cmax, Tmax, and T1/2 were calculated using Phoenix WinNonlin 7.0.

[4] = system: MAPK2(h); assay: Kinase profiling; assay type: biochemical, human; conditions: 1 μM
Experimental: 380 kinases inhibitory activities of SKLB-D18 were conducted by Eurofins Cerep SA. The result was illustrated by kinase tree (http://www.kinhub.org/kinmap/).

[5] = target: ERK2 (Homo sapiens, UniProt P28482); assay: Isothermal titration calorimetry (ITC) assay; assay type: binding; conditions: 25 °C
ERK2, sequence (P28482 whole entry): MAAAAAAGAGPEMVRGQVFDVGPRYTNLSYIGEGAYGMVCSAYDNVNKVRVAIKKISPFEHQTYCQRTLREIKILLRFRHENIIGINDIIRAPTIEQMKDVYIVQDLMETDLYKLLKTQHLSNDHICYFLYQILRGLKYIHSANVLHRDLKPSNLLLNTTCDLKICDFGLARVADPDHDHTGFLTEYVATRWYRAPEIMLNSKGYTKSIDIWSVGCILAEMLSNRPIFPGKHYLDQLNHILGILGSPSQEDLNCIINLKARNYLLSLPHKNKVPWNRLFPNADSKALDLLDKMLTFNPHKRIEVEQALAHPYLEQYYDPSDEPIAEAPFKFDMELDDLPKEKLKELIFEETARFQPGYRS
Experimental: as §1, §2

[6] = target: ERK1 (Homo sapiens, UniProt P27361); assay: Isothermal titration calorimetry (ITC) assay; assay type: binding; conditions: 25 °C
ERK1, sequence (P27361 whole entry): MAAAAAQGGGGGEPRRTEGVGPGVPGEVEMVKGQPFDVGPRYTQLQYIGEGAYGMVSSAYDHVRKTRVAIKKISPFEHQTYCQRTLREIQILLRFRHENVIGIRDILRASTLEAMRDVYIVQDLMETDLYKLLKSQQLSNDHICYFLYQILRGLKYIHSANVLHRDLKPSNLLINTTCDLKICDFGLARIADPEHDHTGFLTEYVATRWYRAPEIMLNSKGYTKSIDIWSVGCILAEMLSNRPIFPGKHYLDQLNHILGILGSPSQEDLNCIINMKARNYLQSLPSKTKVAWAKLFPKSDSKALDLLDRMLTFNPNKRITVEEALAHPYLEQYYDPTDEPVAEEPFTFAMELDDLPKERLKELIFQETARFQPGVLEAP
Experimental: as §1, §2

[7] = Liver microsome metabolic stability; assay type: in vitro ADME
Experimental: An appropriate amount of SD rat and human liver microsomal solution was incubated at 37 °C with a specified concentration of candidate compounds for 5 min, and then NADPH reaction system was added to initiate metabolic reaction. The reaction was terminated at a series of time points by adding acetonitrile solution containing an internal standard compound. Centrifuge at 12,000 rpm for 20 min, take the supernatant solution, and place it in a vacuum centrifuge to dry. After acetonitrile was dissolved, the supernatant solution was centrifugated, and the remaining compounds were quantified by LC-MS to evaluate the metabolic stability of liver microsomes.

[8] = Plasma protein binding rate (ultrafiltration); assay type: in vitro ADME; conditions: SD rat plasma
Experimental: Appropriate amount of SD rat plasma was taken and incubated with the specified concentration of compound at 37 °C for a specified time, and unbound compound solution was obtained by ultrafiltration method, and acetonitrile-containing internal standard compound was added to terminate the reaction, and the remaining compound was quantized by LC-MS to calculate the plasma protein binding rate. Calculation formula: Plasma protein binding rate (%) = (Total blood−Ultrafiltrate)/Total blood * 100%.

ERK5, sequence (Q13164 48-395): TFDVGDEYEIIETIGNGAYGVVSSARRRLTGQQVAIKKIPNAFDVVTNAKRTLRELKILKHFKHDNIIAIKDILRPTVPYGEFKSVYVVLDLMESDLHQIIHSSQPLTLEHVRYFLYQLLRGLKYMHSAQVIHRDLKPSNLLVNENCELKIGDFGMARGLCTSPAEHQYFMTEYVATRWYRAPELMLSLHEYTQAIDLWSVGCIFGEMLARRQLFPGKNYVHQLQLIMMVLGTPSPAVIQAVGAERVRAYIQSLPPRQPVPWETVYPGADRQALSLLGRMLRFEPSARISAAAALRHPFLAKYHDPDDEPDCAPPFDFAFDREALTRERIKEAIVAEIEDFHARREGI

## CN(C)Cc1cccc(Nc2ncc(Cl)c(-c3csc(C(=O)NN4CCOCC4)c3)n2)c1 [SKLB-D18, 4-(5-chloro-2-((3-((dimethylamino)methyl)phenyl)amino)pyrimidin-4-yl)-N-morpholinothiophene-2-carboxamide]
[1]
  Kd: 468 nM
[2]
  changes in the activity of upstream MEK1/2 and MEK5: did not cause any changes
[3]; iv, i.v. 1 mg/kg, read-out: Vss
  Vd: 17 ± 0.568 L/kg
[3]; iv, i.v. 1 mg/kg, read-out: Vz
  Vd: 20.2 ± 1.38 L/kg
[3]; iv, i.v. 1 mg/kg
  AUC(0-inf): 143 ± 6.6 ng·h/mL
  AUC(0-t): 136 ± 5.73 ng·h/mL
  Cmax: 58.7 ± 7.22 ng/mL
  half-life: 2.01 ± 0.16 h
[3]; iv, i.v. 1 mg/kg, read-out: CL (mL/(min·kg))
  clearance: 117 ± 5.45 mL/min/kg
[3]; oral, p.o. 10 mg/kg vs i.v. 1 mg/kg
  bioavailability: 22.4%
[3]; po, p.o. 10 mg/kg
  AUC(0-inf): 457 ng·h/mL
  AUC(0-t): 304 ng·h/mL
  Cmax: 53.7 ng/mL
  half-life: 3.71 h
[4]
  Inhibition%: 56%
[5]
  Kd: 210 nM
[6]
  Kd: 127 nM
[7]; SD rat liver microsomes
  Residual rate (%): 25.8%
  T1/2: 0.5418 h
  microsomal CLint: 42.6 µL/min/mg
[7]; SD, rat, liver microsomes
  half-life: 0.542 h
[7]; human liver microsomes
  Residual rate (%): 69.42%
  half-life: 1.53 h
  microsomal CLint: 15.1 µL/min/mg
[8]
  fraction unbound: 0.816

Reference: PMC11842588, “A first-in-class selective inhibitor of ERK1/2 and ERK5 overcomes drug resistance with a single-molecule strategy” (Signal Transduction and Targeted Therapy, 2025)
